“Also recorded” adds a separate entry of the source.
How the values were obtained:
H358 NSCLC cells = experiment: MTT assay of live cells after drug treatment of H358 cells with c-CBL knockdown; type: cell-based; conditions: H358 clone 27 cells, 72 h after drug treatment
Method: H358 clone 27 cells expressing high levels of c-CBL were knocked down using a lentiviral construct (sh 27). Cells were treated with the indicated RTK inhibitors, PI-3K inhibitors or cisplatin (CDDP). Live cells were assessed 72 h after drug treatment using a MTT assay.
The effects of silencing wt c-CBL in combination with a variety of drugs that inhibit EGFR (erlotinib [Tarceva]), PI-3K (NVP, Wortmanin), MET (SU11274) on the growth of H358 NSCLC cells that endogenously express c-CBL-Wt were investigated. The H358 cells, which expressed high levels of c-CBL, were knocked down using a lentiviral construct (sh 27, directed against c-CBL-Wt in H358 clone 27 cells (black), or the sh SCR scrambled RNA control (white)). Cells were treated with RTK and P1-3K inhibitors, cisplatin (CDDP). Live cells were assessed 72 hours after drug treatment using an MTT assay.

A549 cells = experiment: Cell survival of c-CBL wild type and mutant transfectants after treatment with c-Met and EGFR inhibitors (cell counting); type: cell-based, Human; conditions: for sensitivity (cell survival) of c-CBL mutant versus wild type c-CBL transfected cells: A549 cells transiently transfected with c-CBL WT or mutants SH, Q, V, W*, different concentrations, 48 h treatment
Method: A549 and H226 cells were transiently transfected with empty vector (EV) or c-CBL wild type (WT) and mutants' constructs (SH: S80N/H94Y, Q: Q249E, V: V391I, W*: W802*). At 24 h, cells were recollected and seeded 5×10^4 cells/well in 24 well culture plate. Another 24 h, cells were treated with c-Met inhibitor SU11274 and EGFR inhibitor Tarceva in different concentrations. Cell survival was detected by cell counting after 48 h treatment.

Met kinase = conditions: cited from earlier work
EGFR = conditions: refractory advanced NSCLC; cited from earlier work

SMILES	live cells: c-CBL-Wt knockdown (sh 27) versus scrambled shRNA control (H358 NSCLC cells)	sensitivity of A549 cells containing c-CBL mutants versus wild type c-CBL (A549 cells; 1 μM SU11274, mutants S80N/H94Y, Q249E, V391I, W802* (FIG. 23))	sensitivity (cell survival) of c-CBL mutant versus wild type c-CBL transfected cells (A549 cells)	cell growth, cell cycle and apoptosis (Met kinase)	Met kinase autophosphorylation (Met kinase; sites important for PI3K and Ras pathway activation)	response to EGFR blockade (EGFR)
Cc1[nH]c(/C=C2\C(=O)Nc3ccc(S(=O)(=O)N(C)c4cccc(Cl)c4)cc32)c(C)c1C(=O)N1CCN(C)CC1 [SU11274]	silencing c-CBL-Wt significantly reduced the ability of SU11274 (also referred to as SU) to kill NSCLC cells	c-CBL mutants are more sensitive than wild type c-CBL	had more sensitivity to the c-Met inhibitor SU11274; also recorded: c-CBL mutants had more sensitivity to c-Met inhibitor SU11274 than wild type c-CBL	time- and dose-dependent reduced cell growth and induced G1 cell cycle arrest and apoptosis	reduced	–
C#Cc1cccc(Nc2ncnc3cc(OCCOC)c(OCCOC)cc23)c1 [Tarceva, erlotinib]	–	–	no difference; also recorded: no differential effects	–	–	5-15%
